Experiment [1] has as its system canine PBMCs. Put plainly: IL-1β secretion by canine PBMCs (ELISA). It is filed as cell-based. To be noted: two days in culture, R848 1 μg/mL, 22:0 LYSO PC 82.5 μM. How it is done: (§1) Isolation of PBMCs from Whole Blood. PBMCs were isolated from whole blood using density gradient centrifugation with Ficoll-Paque PLUS (Cytivia). Whole blood was diluted 1:1 with PBS, layered on top of Ficoll-Paque PLUS and centrifuged at 1000×g for 30 minutes at room temperature. PBMCs were collected, washed twice in PBS, and incubated with Ack lysis buffer (Lonza) to remove any remaining red blood cells.
(§2) Cell Culture and Stimulation. Immediately following isolation, PBMCs were plated in RPMI medium containing 10% FBS, 50 units/mL penicillin, […] streptomycin, 2 mM L-glutamine, 1 mM sodium pyruvate, and […] beta-mercaptoethanol (R10 media). […]
(§3) Endpoint Analyses. […] Half of the media volume in the wells was collected for cytokine quantification by Enzyme-Linked Immunosorbent Assay (ELISA) or Lumit™ Bioluminescent assay, while the remaining media and cells were used to quantify cell viability by assessing metabolic activity.
(§4) Quantification of Cytokine Secretion. IL-1β secretion from human PBMCs was assessed using one of the following kits: ELISA MAX Deluxe Set Human IL-1β kit (Biolegend), Invitrogen Human IL-1β kit, or the Lumit™ Human IL-1β Immunoassay (Promega). IFNγ secretion from human PBMCs was assessed using the ELISA MAX Deluxe Set Human IFNγ (Biolegend) and TNFα secretion from human PBMCs was assessed using the Human TNFα Uncoated ELISA kit (Invitrogen). […]

Experiment [2] deals with human PBMCs. Briefly: IFNγ and TNFα secretion by human PBMCs (ELISA). It is filed as cell-based. To be noted: two days post-hyperactivation. As for the experimental part:
Cell Culture and Stimulation. Immediately following isolation, PBMCs were plated in RPMI medium containing 10% FBS, 50 units/mL penicillin, […] streptomycin, 2 mM L-glutamine, 1 mM sodium pyruvate, and […] beta-mercaptoethanol (R10 media). Cells were plated at 1×10^5 (canine cells) or 1×10^6 (human cells) per well in 96-well flat bottom tissue culture plates. Lyophilized Vaccigrade R848 (Invivogen) was reconstituted and diluted according to manufacturer's recommendations and added to cells at a final concentration of 1 μg/mL. Immediately following, 22:0 LYSO PC was added to cells at a final concentration of 82.5 μM. […]
as §3, §4

Experiment [3] deals with human PBMCs. Put plainly: IL-1β secretion by human PBMCs (ELISA or Lumit). The format is cell-based. To be noted: two days in culture. As for the experimental part: as §1, §2, §3, §4
(In general: In an ELISA, binding on a coated surface is turned into a signal by an enzyme label.)

Experiment [4] concerns human leukemia monocytic cell line. To be noted: cited from earlier work.

With `Nc1nc2c(ncn2[C@@H]2O[C@@H]3COP(=O)(O)O[C@H]4[C@@H](O)[C@H](n5cnc6c(N)ncnc65)O[C@@H]4COP(=O)(O)O[C@@H]2[C@@H]3O)c(=O)[nH]1` [2′3′cGAMP, 2′3′cyclic GMP-AMP, reference compound], the IL-1β secretion entry in experiment [1] is reported as “neither GM-CSF nor 2′3′cGAMP induced significant IL-1β secretion”. Also, in experiment [2], the “IFNγ secretion, fold change per donor relative to R848 alone” value is recorded as “neither GM-CSF nor 2′3′cGAMP elicited a substantial fold change in IFNγ secretion over R848 alone”.

For the molecule “GM-CSF: human GM-CSF (Peprotech), innate agonist”, the IL-1β secretion entry in experiment [1] is recorded as “neither GM-CSF nor 2′3′cGAMP induced significant IL-1β secretion”; in experiment [3], “did not induce levels of IL-1β secretion from human PBMCs significantly above background levels”. The “IFNγ secretion, fold change per donor relative to R848 alone” value in experiment [2] is reported as “neither GM-CSF nor 2′3′cGAMP elicited a substantial fold change in IFNγ secretion over R848 alone”.

B1: cGASΔN: constitutively-active truncated human cGAS, C-terminal domain (SEQ ID NO:1) (protein, listed as Homo sapiens)
chain: PGASKLRAVLEKLKLSRDDISTAAGMVKGVVDHLLLRLKCDSAFRGVGLLNTGSYYEHVKISAPNEFDVMFKLEVPRIQLEEYSNTRAYYFVKFKRNPKENPLSQFLEGEILSASKMLSKFRKIIKEEINDIKDTDVIMKRKRGGSPAVTLLISEKISVDITLALESKSSWPASTQEGLRIQNWLSAKVRKQLRLKPFYLVPKHAKEGNGFQEETWRLSFSHIEKEILNNHGKSKTCCENKEEKCCRKDCLKLMKYLLEQLKERFKDKKHLDKFSSYHVKTAFFHVCTQNPQDSQWDRKDLGLCFDNCVTYFLQCLRTEKLENYFIPEFNLFSSNLIDKRSKEFLTKQIEYERNNEFPVFDEF
On to B1, for which the “expression of interferon and interferon-stimulated genes” value in experiment [4] was “higher levels of expression of interferon and interferon-stimulated genes”.

The values above are taken from patent US20250255815A1, “NUCLEIC ACIDS ENCODING A CONSTITUTIVELY-ACTIVE CYCLIC GMP-AMP SYNTHASE AND IMMUNOGENIC DELIVERY VEHICLES FOR SAME” (Corner Therapeutics, Inc., priority 2022, published 2025).
